# ChEMBL document CHEMBL1201862, “PubChem BioAssay data set” (2004)
# Calls of active or inactive are those of the source.
# Legend:
# [1] = biological target: FAD-linked sulfhydryl oxidase ALR (Homo sapiens, UniProt P55789); test: inhibitors of human ALR sulfhydryl oxidase, dose response, biochemical, H2O2 detection, luminescence, cherry-pick (AID 493248)
# H9c2 = test: cells; type: functional, cell-based; settings: Rattus norvegicus, H9c2, Myocardium;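 further: confirmatory concentration-response retest of ultra-high-throughput screening hits for modulation of myocardial damage; cell death induced by hydrogen peroxide oxidative stress; compound pretreatment for 60 min then peroxide exposure for 2 h; potency is for protecting the cells against peroxide damage rather than for killing them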
# [2] = Shn3 3'UTR reporter inhibitors, dose response, cell-based, Clone20 osteoblasts, firefly luciferase, cherry-picked (AID 624132); type: functional;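 further: firefly luciferase luminescence from reporter carrying the Shn3 3'UTR in osteoblasts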
# [3] = control 3'UTR Renilla luciferase suppression, dose response, counter-screen for Shn3 inhibitor project, cell-based, Clone20-Shn3RL, cherry-picked (AID 624133); type: functional
# [4] = HepG2 cell cytotoxicity, dose response, cytotoxicity control for Shn3 inhibitor project, CellTiter-Glo, cherry-picked (AID 624134); type: functional, cell-based
# [5] = biological target: T1, Short transient receptor potential channel 4 (Mus musculus, UniProt Q9QUQ5); test: mouse TRPC4 channel activators, dose response, cell-based, HEK293 TRPC4/mu-opioid, Fluo-4 calcium (AID 434937); type: functional
# T1 sequence (Q9QUQ5 whole entry): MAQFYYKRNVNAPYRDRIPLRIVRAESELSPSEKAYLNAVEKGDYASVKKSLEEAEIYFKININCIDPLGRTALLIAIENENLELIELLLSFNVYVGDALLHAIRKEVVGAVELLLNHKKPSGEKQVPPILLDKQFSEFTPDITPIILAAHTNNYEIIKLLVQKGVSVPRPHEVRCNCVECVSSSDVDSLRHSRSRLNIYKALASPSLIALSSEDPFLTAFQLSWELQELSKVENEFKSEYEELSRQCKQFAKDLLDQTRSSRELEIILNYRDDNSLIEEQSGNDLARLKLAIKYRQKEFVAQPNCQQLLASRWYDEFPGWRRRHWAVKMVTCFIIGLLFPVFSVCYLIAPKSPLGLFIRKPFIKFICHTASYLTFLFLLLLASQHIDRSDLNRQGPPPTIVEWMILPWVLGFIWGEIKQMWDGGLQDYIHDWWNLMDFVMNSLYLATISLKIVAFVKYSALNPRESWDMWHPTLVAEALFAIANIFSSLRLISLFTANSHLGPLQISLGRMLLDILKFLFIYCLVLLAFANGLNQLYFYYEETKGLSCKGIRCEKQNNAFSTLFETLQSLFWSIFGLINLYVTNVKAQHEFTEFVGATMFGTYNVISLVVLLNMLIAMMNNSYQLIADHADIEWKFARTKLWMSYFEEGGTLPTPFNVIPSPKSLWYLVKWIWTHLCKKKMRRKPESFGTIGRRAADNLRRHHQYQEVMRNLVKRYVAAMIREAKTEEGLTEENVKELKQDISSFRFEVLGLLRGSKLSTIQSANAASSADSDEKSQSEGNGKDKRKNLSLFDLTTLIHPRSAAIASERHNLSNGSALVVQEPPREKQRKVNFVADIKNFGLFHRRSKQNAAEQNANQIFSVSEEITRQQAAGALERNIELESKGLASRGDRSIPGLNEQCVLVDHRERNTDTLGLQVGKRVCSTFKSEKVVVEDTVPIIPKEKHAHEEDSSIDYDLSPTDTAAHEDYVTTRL
# SN12K1 = test: cells; type: functional
# P388 = test: cells; type: functional
# P388/ADR = test: cells; type: functional; settings: Mus musculus
# cells = type: functional
# [6] = C. albicans growth with fluconazole, confirmation, fluorescence, retest (AID 2467); type: functional, cell-based
# INS1 = test: beta cell apoptosis inhibitors, cytokine rescue, dose response, luminescence, retest (AID 449756); type: functional, cell-based; settings: Rattus norvegicus;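 further: cell death triggered by IL-1 beta plus TNF-alpha plus IFN-gamma mixture; protective hits raise ATP signal compared with cytokine alone wells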
# [7] = inhibitors of firefly luciferase expression or activity, dose response, H4 neuroglioma cells, luminescence (AID 1990); type: functional, cell-based
# [8] = Luminescence Cell-Based Dose Retest to Confirm Inhibitors of Cancer Stem Cells. [Related pubchem assays (depositor defined):AID2717, AID2721]; type: functional; settings: Homo sapiens
# [9] = Luminescence Cell-Based Dose Response HTS to Identify Inhibitors of 5'UTR Stem-Loop Driven Prion Protein mRNA Translation in H4 Neuroglioblastoma Cells. [Related pubchem assays: 1827 (Project Summary), 1813 (Primary HTS)]; type: functional
# [10] = inhibitors of SNCA 5'UTR-driven reporter translation, confirmation, H4 neuroglioma cells, luminescence (AID 1988); type: functional, cell-based
# [11] = biological target: T2, Rac GTPase-activating protein 1 (Homo sapiens, UniProt Q9H0H5); test: MgcRacGAP GTPase-activating activity inhibitors, confirmation, biochemical, ADP Hunter fluorescence, primary and confirmatory (AID 624330); type: functional
# T2 sequence (Q9H0H5 whole entry): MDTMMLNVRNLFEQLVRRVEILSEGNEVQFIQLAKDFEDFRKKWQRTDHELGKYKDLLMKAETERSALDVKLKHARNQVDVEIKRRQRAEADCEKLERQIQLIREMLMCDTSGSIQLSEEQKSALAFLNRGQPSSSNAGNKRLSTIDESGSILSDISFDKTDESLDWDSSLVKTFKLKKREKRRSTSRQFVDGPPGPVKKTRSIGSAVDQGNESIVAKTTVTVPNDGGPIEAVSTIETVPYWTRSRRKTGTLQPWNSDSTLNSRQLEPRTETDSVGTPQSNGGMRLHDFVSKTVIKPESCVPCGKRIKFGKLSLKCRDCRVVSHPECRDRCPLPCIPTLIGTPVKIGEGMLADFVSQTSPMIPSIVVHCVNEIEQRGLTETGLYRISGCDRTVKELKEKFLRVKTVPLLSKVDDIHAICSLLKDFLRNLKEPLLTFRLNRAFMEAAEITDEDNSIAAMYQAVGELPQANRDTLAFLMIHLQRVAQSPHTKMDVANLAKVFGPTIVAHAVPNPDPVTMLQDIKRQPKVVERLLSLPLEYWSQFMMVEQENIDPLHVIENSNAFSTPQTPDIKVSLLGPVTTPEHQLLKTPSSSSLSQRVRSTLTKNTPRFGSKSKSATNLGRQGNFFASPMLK
# Chain of FAD-linked sulfhydryl oxidase ALR (P55789 whole entry): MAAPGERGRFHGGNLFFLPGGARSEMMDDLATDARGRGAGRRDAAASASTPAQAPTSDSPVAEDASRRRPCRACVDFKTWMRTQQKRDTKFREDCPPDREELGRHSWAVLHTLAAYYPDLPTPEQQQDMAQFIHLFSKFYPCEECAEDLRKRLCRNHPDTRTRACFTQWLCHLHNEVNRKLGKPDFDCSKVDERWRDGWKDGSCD
smiles,measurement,setting,value
c1ccc(CNc2ccc3c(c2)ncn3C2CCCCC2)nc1,AC50,[1],1.2 µM (active)
CC1Cc2ccccc2N1C(=O)COC(=O)c1nnc(O)c2ccccc12 (stereo not given),IC50,H9c2,> 79 µM (inactive)
O=C(COc1cccc(F)c1)Nc1nc(-c2ccccn2)cs1,IC50,H9c2,> 79 µM (inactive)
Cc1ccc(CNc2nc(NCC3CC3)nc3ccsc23)c(C)c1,AC50,[2],3.95 µM (active)
same,AC50,[3],6.26 µM (active)
same,AC50,[4],40.4 µM (active)
c1ccc2sc(N3CCNCC3)nc2c1,EC50,[5],0.473 µM (active)
C[n+]1ccc(Nc2ccc(NC(=O)c3ccc(Nc4cc[n+](C)c5ccc([N+](=O)[O-])cc45)cc3[N+](=O)[O-])cc2)cc1,GI50,SN12K1,23.4 µM (inactive)
same,GI50,P388,0.617 µM (active)
O=S(=O)(CCBr)CCBr,GI50,"SN12K1; Homo sapiens, SN12K1",6.59 µM (inactive)
same,GI50,"P388; Mus musculus, P388",2.13 µM (inactive)
same,GI50,P388/ADR,2.84 µM (inactive)
O=C(Nc1nc(-c2ccccn2)cs1)c1cccc(S(=O)(=O)N2CCOCC2)c1,AC50,[2],1.52 µM (active)
same,AC50,[3],2.89 µM (active)
same,IC50,H9c2,21 µM (active)
same,AC50,[4],5.28 µM (active)
CC(C)NC(=O)COC(=O)Cn1[nH]c(=O)c2ccccc2c1=O,IC50,H9c2,16.4 µM (active)
O=C(COc1ccccc1)Nc1nnc(-c2ccc3c(c2)CCCC3)o1,IC50,cells,10.3 µM (active)
same,EC50,[6],0.499 µM (active)
CC(C)Oc1ccc(S(=O)(=O)N2CCCCC2)cc1NC(=O)CN1CCCC1c1cccs1 (stereo not given),AC50,[2],7.88 µM (active)
same,AC50,[3],20.6 µM (active)
same,AC50,INS1,5.76 µM (active)
same,AC50,[4],> 70 µM (inactive)
O=C(NCCCCCCNC(=O)n1cc(F)c(=O)[nH]c1=O)NCCCOCCOCCOCCOCCOCCOCCOCCOCCOCCOCCOCCOCCOCCOCCOCCOCCOCCOCCOCCOCCOCCCNC(=O)C(O)C(O)C(OC1OC(CO)C(O)C(O)C1O)C(O)CO (stereo not given),GI50,"SN12K1; Homo sapiens, SN12K1",6.46 µM (inactive)
same,GI50,"P388; Mus musculus, P388",0.566 µM (active)
same,GI50,P388/ADR,0.43 µM (active)
COc1cccc2c1C(=N)c1c(O)c3c(c(O)c1C2=O)C[C@@](O)(C(C)=O)C[C@@H]3OC1CC(N)C(O)C(C)O1 (stereo not given in full),GI50,"SN12K1; Homo sapiens, SN12K1",0.124 µM (active)
same,GI50,"P388; Mus musculus, P388",0.000159 µM (active)
same,GI50,P388/ADR,0.000673 µM (active)
Sc1nnc(-c2ccc3ccccc3n2)o1,AC50,[1],0.01 µM (active)
CCOC(=O)C(C)Oc1ccc(OCc2ccccc2)cc1 (stereo not given),IC50,cells,6.32 µM (active)
COc1ccc(CNCCC(c2ccc(OC(C)C)cc2)c2ccccc2OC)cc1 (stereo not given),EC50,[7],11.4 µM (active)
same,AC50,[2],3.86 µM (active)
same,AC50,[3],20.9 µM (active)
same,AC50,INS1,7.26 µM (active)
same,AC50,[8],5.81 µM (active)
same,EC50,[9],113 µM (active)
same,AC50,[4],13.3 µM (active)
same,EC50,[10],8.9 µM (active)
Cc1nc(Cc2nnc(SCC(=O)N3CCN(c4ccc(O)cc4)CC3)o2)cs1,IC50,[11],30 µM (active)
Clc1cccc(CNCCNCc2cccc(Cl)c2)c1,IC50,cells,20.5 µM (active)
O=S(=O)(c1ccc2ccccc2c1)N1CCN=C1SCc1cccnc1,AC50,[1],0.072 µM (active)
Cc1nn(-c2ccccc2)c(C)c1-c1cc(C(=O)N/N=C/c2ccc(O)cc2)[nH]n1,AC50,[1],4.12 µM (active)
COc1ccc(C(=O)Nc2nc(-c3ccccn3)cs2)cc1S(=O)(=O)N1CCOCC1,IC50,H9c2,10.9 µM (active)
CC1(C)CC2C1CCC1(O)CC2(C)CCC1N(O)c1ccc(C(=O)NCCO)cn1 (stereo not given),IC50,H9c2,> 79 µM (inactive)
